Data as given in patent US9980489B2, “Stabilized bio-available soluble silicate solution” (priority 2010, dated 2018).

System: silicon accumulator plants, silicon diffusion plants and silicon rejecting plants
Settings: foliar spray every week, solution containing 0002 mg/ml Si

With silicic acid the “effect on growth, production, resistance to infection, color of fruits, shelf life” value was “clear effect”.
